The values below come from PMC9340777 (Journal of Medicinal Chemistry, 2022).

Data set [1] is described as follows: physchem. The note with it: buffer, pH 6.5.
The nature of data set [2]: in vitro. The note with it: male, Wistar Han, rat, tissue homogenate, pH 6.8.
A short description of data set [3]: physchem. As to conditions: buffer.
For data set [4] the following is noted: Han Wistar, rat, pH 6.8.
The conditions of data set [5]: rat, in vivo.
The conditions of data set [6]: pH 6.5.
Data set [7] is described as follows: in vitro. As to conditions: rat, pH 7.2, rat blood T1/2 (h) pH 7.2.

Where only a bound is given, the exact number is not on record here.

Regarding `CC(OC(=O)[C@@H](N)C(C)(C)C)OC(=O)N1CCC(OC(=O)C(O)(c2ccccc2)c2ccccc2)CC1.Cl` (stereo partly drawn) [Compound 15, 1-(((S)-2-Amino-3,3-dimethylbutanoyl)oxy)ethyl-4-(2-hydroxy-2,2-diphenylacetoxy)piperidine-1-carboxylate Hydrochloride], the half-life in the data set “physchem [1]” is 12.2 h.
Consider `CC(OC(=O)[C@@H](NC(=O)[C@@H](N)CCCCN)C(C)C)OC(=O)N1CCC(OC(=O)C(O)(c2ccccc2)c2ccccc2)CC1.Cl.Cl` (stereo partly drawn) [Compound 25, 1-((L-Lysyl-L-valyl)oxy)ethyl-4-(2-hydroxy-2,2-diphenylacetoxy)piperidine-1-carboxylate Dihydrochloride], for which the half-life in the data set “in vitro [2]” was 0.6 ± 0.09 h; in the data set “physchem [3]” (pH 6.5), 14.4 ± 1.68 h; in the data set “physchem [3]” (pH 7.4), 4.4 ± 0.39 h.
For the compound `CC(OC(=O)[C@H](NC(=O)[C@@H](N)CCCCN)C(C)(C)C)OC(=O)N1CCC(OC(=O)C(O)(c2ccccc2)c2ccccc2)CC1.Cl.Cl` (stereo partly drawn) [Compound 23, 1-(((R)-2-((S)-2,6-Diaminohexanamido)-3,3-dimethylbutanoyl)oxy)ethyl-4-(2-hydroxy-2,2-diphenylacetoxy)piperidine-1-carboxylate Dihydrochloride], the half-life in the data set “in vitro [2]” is 25.4 ± 1.94 h; in the data set “physchem [3]” (pH 6.5) it was 58.6 ± 4.91 h; in the data set “physchem [3]” (pH 7.4) it was 36.6 ± 1.7 h; in the data set “in vitro [7]”, 7 ± 0.82 h. For the same compound, the “formation of monobasic intermediate (peptide amide bond hydrolysis)” value in data set [4] is “no evidence of intermediate 18”. Moreover, in data set [5] (male, Sprague Dawley), the “23 in lung as % of the total dose delivered (calculated mass balance)” value is 54%. Also, in data set [5] (male, Sprague Dawley), the “ratio of 23 to 1 in lung” value is reported as ~27:1. Besides, in data set [5] (male, Sprague Dawley, 0.2 mg/kg), the “total lung concentration of 23” value turned out to be 31.2 µM. The “plasma concentration of 23 in words” value in data set [5] (0.2 mg/kg) is recorded as “only a very low concentration”. Moreover, in data set [6], the “appearance in dosing formulation” value was “clear solution”.
On to `CC(OC(=O)CCCCN)OC(=O)N1CCC(OC(=O)C(O)(c2ccccc2)c2ccccc2)CC1.Cl` (stereo not drawn) [Compound 6, 1-((5-Aminopentanoyl)oxy)ethyl-4-(2-hydroxy-2,2-diphenylacetoxy)piperidine-1-carboxylate Hydrochloride], for which, in “physchem [1]”, the half-life was below 0.01 h.
Turning to `CC(OC(=O)[C@H](NC(=O)[C@@H](N)CCCCN)C(C)C)OC(=O)N1CCC(OC(=O)C(O)(c2ccccc2)c2ccccc2)CC1.Cl.Cl` (stereo partly drawn) [Compound 26, 1-((L-Lysyl-D-valyl)oxy)ethyl-4-(2-hydroxy-2,2-diphenylacetoxy)piperidine-1-carboxylate Dihydrochloride], the half-life was 3.4 ± 0.08 h in “in vitro [2]”, 8.7 ± 1.06 h in “physchem [3]” (pH 6.5), 1.8 ± 0.2 h in the data set “physchem [3]” (pH 7.4) and 0.6 ± 0.07 h in the data set “in vitro [7]”.
As to `CC[C@H](C)[C@H](N)C(=O)N[C@@H](CCCCN)C(=O)OC(C)OC(=O)N1CCC(OC(=O)C(O)(c2ccccc2)c2ccccc2)CC1.Cl.Cl` (stereo partly drawn) [Compound 27, 1-((L-Isoleucyl-L-lysyl)oxy)ethyl-4-(2-hydroxy-2,2-diphenylacetoxy)piperidine-1-carboxylate Dihydrochloride], the half-life was 4.9 ± 0.06 h in “physchem [3]” (pH 6.5) and 0.9 ± 0.04 h in the data set “physchem [3]” (pH 7.4).
For `CC(C)C[C@H](N)C(=O)OC(C)OC(=O)N1CCC(OC(=O)C(O)(c2ccccc2)c2ccccc2)CC1.Cl` (stereo partly drawn) [Compound 13, 1-((L-Leucyl)oxy)ethyl-4-(2-hydroxy-2,2-diphenylacetoxy)piperidine-1-carboxylate Hydrochloride], in “physchem [1]”, the half-life is 5.09 h.
Regarding `CC(OC(=O)[C@H](CCCCN)NC(=O)CCN)OC(=O)N1CCC(OC(=O)C(O)(c2ccccc2)c2ccccc2)CC1.Cl.Cl` (stereo partly drawn) [Compound 28, 1-(((3-Aminopropanoyl)-L-lysyl)oxy)ethyl-4-(2-hydroxy-2,2-diphenylacetoxy)piperidine-1-carboxylate Dihydrochloride], the half-life was 0.7 ± 0.21 h in the data set “in vitro [2]”, 102 ± 3.86 h in the data set “physchem [3]” (pH 6.5) and 11.5 ± 0.73 h in the data set “physchem [3]” (pH 7.4).
Compound `CC[C@H](C)[C@H](N)C(=O)OC(C)OC(=O)N1CCC(OC(=O)C(O)(c2ccccc2)c2ccccc2)CC1.Cl` (stereo partly drawn) [Compound 16, 1-((L-Isoleucyl)oxy)ethyl-4-(2-hydroxy-2,2-diphenylacetoxy)piperidine-1-carboxylate Hydrochloride] had a half-life in “physchem [1]” of 13.9 h.
In the data set “physchem [1]”, `CC(OC(=O)[C@@H]1CCCN1)OC(=O)N1CCC(OC(=O)C(O)(c2ccccc2)c2ccccc2)CC1.Cl` (stereo partly drawn) [Compound 9, 1-((L-Prolyl)oxy)ethyl-4-(2-hydroxy-2,2-diphenylacetoxy)piperidine-1-carboxylate Hydrochloride] showed a half-life of 0.14 h.
In the case of `CC(OC(=O)[C@@H](N)CCCCN)OC(=O)N1CCC(OC(=O)C(O)(c2ccccc2)c2ccccc2)CC1.Cl.Cl` (stereo partly drawn) [Compound 17, 1-((L-Lysyl)oxy)ethyl-4-(2-hydroxy-2,2-diphenylacetoxy)piperidine-1-carboxylate Dihydrochloride], the figures for the half-life in “physchem [3]” (pH 6.5) and in the data set “physchem [3]” (pH 7.4) were 3.9 ± 0.05 h and 1.1 ± 0.02 h, respectively.
With `CC(OC(=O)[C@@H](N)C(C)C)OC(=O)N1CCC(OC(=O)C(O)(c2ccccc2)c2ccccc2)CC1.Cl` (stereo partly drawn) [Compound 14, 1-((L-Valyl)oxy)ethyl-4-(2-hydroxy-2,2-diphenylacetoxy)piperidine-1-carboxylate Hydrochloride], the half-life in “physchem [1]” was 15.8 h.
For the compound `CC(OC(=O)[C@@H](NC(=O)[C@@H](N)CCCCN)C(C)(C)C)OC(=O)N1CCC(OC(=O)C(O)(c2ccccc2)c2ccccc2)CC1.Cl.Cl` (stereo partly drawn) [Compound 22, 1-(((S)-2-((S)-2,6-Diaminohexanamido)-3,3-dimethylbutanoyl)oxy)ethyl-4-(2-hydroxy-2,2-diphenylacetoxy)piperidine-1-carboxylate Dihydrochloride], the “rat blood T1/2 (h) pH 7.2” value is 0.1 ± 0.01 h. For the same compound, the half-life in “in vitro [2]” is 2.5 ± 0.07 h. Moreover, the “formation of monobasic intermediate (peptide amide bond hydrolysis)” value in data set [4] is “clearly showing the intermediate 15”. In addition, the half-life in the data set “physchem [3]” (pH 6.5) is 186 ± 0.79 h. In addition, the half-life in “physchem [3]” (pH 7.4) was 67 ± 0.23 h. The compound further gave a half-life in “in vitro [7]” of 0.2 h.
